In patent publication US10064865B2, “Composition comprising phosphodiesterase type 5 inhibitor for inhibiting apoptosis of nerve cells” (ARIBIO INC., priority 2012, dated 2018):
Marks after values point to notes of the source that are not given here.

Test system: neuron apoptosis-operated rats
Assay: Example 1 water tank task (cognitive motor behavior)
Assay type: in vivo, Sprague-Dawley (SD) rats
Experimental: Cognitive testing was conducted using the water tank task (J Neurosci Methods. 11:47-60(1984)). 14 and 28 after neuron apoptosis, the rats were given a series of 3 trials, 10 min apart in a large dark-colored tank (150 cm in diameters×50 cm in height) filled with clear water at a temperature of 22.0±1.0° C. A 15×30 cm submerged platform (2 mm below water surface) was placed in the northwest quadrant of the pool. The release point was always the southern end of the pool. The rats were lowered into the pool facing the wall and were released. The swim paths of the rats for each trials were recorded with a computer interfaced camera tracking system (Smart junior, PanLab, Spain), and the distances (m) and times (sec) taken to reach the escape platform were measured.
All data were expressed as mean±standard deviation (S.D.) of ten rats. Multiple comparison tests for different dose groups were conducted. Variance homogeneity was examined using the Levene test (Levene A, Clin Otalary, 1981; 6:145-51). […] Statistical analyses were conducted using SPSS (Release 14K, SPSS Inc., USA; Ludbrook, Clin Exp Pharmacol Physiol, 1997; 24:294-6). In addition, the percent changes between neuron apoptosis control and mirodenafil treated rats were calculated to help the understanding of the efficacy of test material as follow equation 3. Percentage changes as compared with neuron apoptosis control (%)=[((Data of mirodenafil treated groups−Data of neuron apoptosis control)/Data of neuron apoptosis control)×100] [EQUATION 3]

[1] = 0.5 mg/kg s.c. once a day, at 14 days, Mean of trials
[2] = 0.5 mg/kg s.c. once a day, at 14 days, trial 1
[3] = 0.5 mg/kg s.c. once a day, at 14 days, trial 2
[4] = 0.5 mg/kg s.c. once a day, at 14 days, trial 3
[5] = 0.5 mg/kg s.c. once a day, at 28 days, Mean of trials
[6] = 0.5 mg/kg s.c. once a day, at 28 days, trial 1
[7] = 0.5 mg/kg s.c. once a day, at 28 days, trial 2
[8] = 0.5 mg/kg s.c. once a day, at 28 days, trial 3
[9] = 1 mg/kg s.c. once a day, at 14 days, Mean of trials
[10] = 1 mg/kg s.c. once a day, at 14 days, trial 1
[11] = 1 mg/kg s.c. once a day, at 14 days, trial 2
[12] = 1 mg/kg s.c. once a day, at 14 days, trial 3
[13] = 1 mg/kg s.c. once a day, at 28 days, Mean of trials
[14] = 1 mg/kg s.c. once a day, at 28 days, trial 1
[15] = 1 mg/kg s.c. once a day, at 28 days, trial 2
[16] = 1 mg/kg s.c. once a day, at 28 days, trial 3
[17] = 2 mg/kg s.c. once a day, at 14 days, Mean of trials
[18] = 2 mg/kg s.c. once a day, at 14 days, trial 1
[19] = 2 mg/kg s.c. once a day, at 14 days, trial 2
[20] = 2 mg/kg s.c. once a day, at 14 days, trial 3
[21] = 2 mg/kg s.c. once a day, at 28 days, Mean of trials
[22] = 2 mg/kg s.c. once a day, at 28 days, trial 1
[23] = 2 mg/kg s.c. once a day, at 28 days, trial 2
[24] = 2 mg/kg s.c. once a day, at 28 days, trial 3

For `CCCOc1ccc(S(=O)(=O)N2CCN(CCO)CC2)cc1-c1nc2c(CCC)cn(CC)c2c(=O)[nH]1` [Mirodenafil, mirodenafil], the “The distance to reach the escape platform” value (from here on “The distance”) [1] was 13.36 ± 0.81^a m, the “The time to reach the escape platform” value [1] was 119.6 ± 9.53^ad sec and the “The distance” value [2] was 15.89 ± 1.14 m. For the same compound, the “The time to reach the escape platform” value [2] was 149.8 ± 11.05^a sec, the “The distance” value [3] was 13.35 ± 1.02^ad m and the “The time to reach the escape platform” value [3] was 118.0 ± 10.38^ad sec. The “The distance” value [4] was 10.83 ± 0.85^a m, the “The time to reach the escape platform” value [4] was 91.0 ± 11.49^ac sec and the “The distance” value [5] was 11.38 ± 0.76^ac m. For the same compound, the “The time to reach the escape platform” value [5] was 92.1 ± 9.98^ac sec, the “The distance” value [6] was 13.24 ± 0.83^ad m and the “The time to reach the escape platform” value [6] was 113.7 ± 9.57^ac sec. For the same compound, the “The distance” value [7] was 11.22 ± 1.08^ad m, the “The time to reach the escape platform” value [7] was 88.5 ± 12.48^ac sec and the “The distance” value [8] was 9.68 ± 0.75^ef m. The “The time to reach the escape platform” value [8] was 74.1 ± 10.58^ac sec, the “distances to reach the escape platform, change as compared with neuron apoptosis control” value (0.5 mg/kg, trial 1 of 28 days) was −9.80% and the “time to reach the escape platform, change as compared with neuron apoptosis control” value (0.5 mg/kg, trial 1 of 28 days) was −11.45%. For the same compound, the “distances to reach the escape platform, change as compared with neuron apoptosis control” value (0.5 mg/kg, trial 2 of 14 days) was −7.93%, the “time to reach the escape platform, change as compared with neuron apoptosis control” value (0.5 mg/kg, trial 2 of 14 days) was −10.47% and the “distances to reach the escape platform, change as compared with neuron apoptosis control” value (0.5 mg/kg, trial 2 of 28 days) was −14.02%. For the same compound, the “time to reach the escape platform, change as compared with neuron apoptosis control” value (0.5 mg/kg, trial 2 of 28 days) was −22.23%, the “distances to reach the escape platform, change as compared with neuron apoptosis control” value (0.5 mg/kg, trial 3 of 14 days) was −9.42% and the “time to reach the escape platform, change as compared with neuron apoptosis control” value (0.5 mg/kg, trial 3 of 14 days) was −18.37%. For the same compound, the “distances to reach the escape platform, change as compared with neuron apoptosis control” value (0.5 mg/kg, trial 3 of 28 days) was −17.56%, the “time to reach the escape platform, change as compared with neuron apoptosis control” value (0.5 mg/kg, trial 3 of 28 days) was −29.16% and the “The distance” value [9] was 12.83 ± 1.29^ac m. For the same compound, the “The time to reach the escape platform” value [9] was 116.7 ± 6.30^ac sec, the “The distance” value [10] was 15.93 ± 1.21 m and the “The time to reach the escape platform” value [10] was 150.9 ± 9.00^a sec. The “The distance” value [11] was 12.89 ± 1.61^ac m, the “The time to reach the escape platform” value [11] was 115.3 ± 8.19^ac sec and the “The distance” value [12] was 9.66 ± 1.42^ac m. The “The time to reach the escape platform” value [12] was 83.9 ± 10.10^ac sec, the “The distance” value [13] was 9.39 ± 1.33^ac m and the “The time to reach the escape platform” value [13] was 81.0 ± 8.68^ac sec. The “The distance” value [14] was 12.65 ± 1.24^ac m, the “The time to reach the escape platform” value [14] was 106.6 ± 10.52^bc sec and the “The distance” value [15] was 9.33 ± 2.17^ac m. For the same compound, the “The time to reach the escape platform” value [15] was 78.4 ± 13.55^ac sec, the “The distance” value [16] was 6.19 ± 1.93^ef m and the “The time to reach the escape platform” value [16] was 58.1 ± 9.22^ac sec. The “distances to reach the escape platform, change as compared with neuron apoptosis control” value (1 mg/kg, trial 1 of 28 days) was −13.80%, the “time to reach the escape platform, change as compared with neuron apoptosis control” value (1 mg/kg, trial 1 of 28 days) was −16.98% and the “distances to reach the escape platform, change as compared with neuron apoptosis control” value (1 mg/kg, trial 2 of 14 days) was −11.07%. The “time to reach the escape platform, change as compared with neuron apoptosis control” value (1 mg/kg, trial 2 of 14 days) was −12.52%, the “time to reach the escape platform, change as compared with neuron apoptosis control” value (1 mg/kg, trial 2 of 28 days) was −31.11% and the “distances to reach the escape platform, change as compared with neuron apoptosis control” value (1 mg/kg, trial 3 of 14 days) was −19.20%. The “time to reach the escape platform, change as compared with neuron apoptosis control” value (1 mg/kg, trial 3 of 14 days) was −24.82%, the “distances to reach the escape platform, change as compared with neuron apoptosis control” value (1 mg/kg, trial 3 of 28 days) was −47.33% and the “time to reach the escape platform, change as compared with neuron apoptosis control” value (1 mg/kg, trial 3 of 28 days) was −44.46%. For the same compound, the “The distance” value [17] was 12.79 ± 0.64^ac m, the “The time to reach the escape platform” value [17] was 116.6 ± 10.88^ac sec and the “The distance” value [18] was 16.18 ± 1.49 m. The “The time to reach the escape platform” value [18] was 151.2 ± 10.59^a sec, the “The distance” value [19] was 12.68 ± 0.82^ac m and the “The time to reach the escape platform” value [19] was 115.9 ± 12.51^ac sec. The “The distance” value [20] was 9.52 ± 1.27^ac m, the “The time to reach the escape platform” value [20] was 82.7 ± 15.17^ac sec and the “The distance” value [21] was 9.46 ± 1.25^ac m. For the same compound, the “The time to reach the escape platform” value [21] was 80.6 ± 6.63^ac sec, the “The distance” value [22] was 12.62 ± 1.21^ac m and the “The time to reach the escape platform” value [22] was 106.5 ± 9.79^bc sec. For the same compound, the “The distance” value [23] was 9.18 ± 1.46^ac m, the “The time to reach the escape platform” value [23] was 78.2 ± 8.19^ac sec and the “The distance” value [24] was 6.56 ± 1.85^ef m. The “The time to reach the escape platform” value [24] was 57.2 ± 6.43^ac sec, the “distances to reach the escape platform, change as compared with neuron apoptosis control” value (2 mg/kg, trial 1 of 28 days) was −14.01% and the “time to reach the escape platform, change as compared with neuron apoptosis control” value (2 mg/kg, trial 1 of 28 days) was −17.06%. The “distances to reach the escape platform, change as compared with neuron apoptosis control” value (2 mg/kg, trial 2 of 14 days) was −12.54%, the “time to reach the escape platform, change as compared with neuron apoptosis control” value (2 mg/kg, trial 2 of 14 days) was −12.06% and the “distances to reach the escape platform, change as compared with neuron apoptosis control” value (2 mg/kg, trial 2 of 28 days) was −29.65%. For the same compound, the “time to reach the escape platform, change as compared with neuron apoptosis control” value (2 mg/kg, trial 2 of 28 days) was −31.28%, the “distances to reach the escape platform, change as compared with neuron apoptosis control” value (2 mg/kg, trial 3 of 14 days) was −20.37% and the “time to reach the escape platform, change as compared with neuron apoptosis control” value (2 mg/kg, trial 3 of 14 days) was −25.90%. The “distances to reach the escape platform, change as compared with neuron apoptosis control” value (2 mg/kg, trial 3 of 28 days) was −44.14% and the “time to reach the escape platform, change as compared with neuron apoptosis control” value (2 mg/kg, trial 3 of 28 days) was −45.32%.
